Data taken from patent US10487083B2, “Small molecule inhibitors of the JAK family of kinases” (Janssen Pharmaceutica NV, priority 2016, dated 2019).

Experiments:
[1] = Physical stability of crystalline embodiments of compound Ex. 1 (HT-XRPD/HR-XRPD after exposure); assay type: physicochemical; settings: for physical stability after exposure to AAC: AAC 40° C./70% RH, two days; for physical stability in climate chamber: four days, HR-XRPD
Description: Long term slurry experiments were performed by suspending compound embodiment 1s in twenty neat solvents and stirred at room temperature for two weeks and at 50° C. for one week. Upon completion of the equilibration time, the residual solids were separated from the mother liquors. The solids were dried under ambient conditions and dried under vacuum (5 mBar) before being analyzed by HT-XRPD. Subsequently, the solids were exposed to accelerated aging conditions (40° C./70% relative humidity) for two days and again analyzed by HT-XRPD.
Embodiment 1s converted to hydrated embodiment 10 when it was exposed to 100% RH at 25° C. […] This behavior is attributable to an unequally strong binding of all the hydration/solvation molecules. In this case, embodiment 10 would have a less strongly bound second water molecule that would be lost under ambient conditions. More precisely, the physical stability of embodiment 1s was investigated in climate chambers by exposing a 20 mg sample of such embodiment to 40° C. and 70% relative humidity for four days, and another 20 mg sample of the same embodiment was exposed also for four days to 25° C. and 100% relative humidity. After four days, the various solid samples were analyzed by HR-XRPD, the crystal cell parameters were determined and the diffractograms were indexed. From bottom to top, the first diffractogram in FIG. 6 corresponds to embodiment 1s as starting material, and the second corresponds to the same form after a 4-day exposure to 40° C. and 70% relative humidity, noted as “1s 70 RH” in the same figure. […] Indexing for such form was not possible due to the small amount in which it was present. The third diffractogram corresponds to embodiment 1s after a 4-day exposure to 25° C. and 100% relative humidity, noted as “10” in the same figure. […] Upon dehydration, both embodiments is and 10 re-crystallized to the anhydrous form with a melting point of 148° C.

[2] = MDCK-MDR1 permeability assay; assay type: in vitro ADME; settings: MDCK-MDR1, pH 7.4; @ 5 μM, with P-gp inhibitor elacridar (2 μM); read-out: MDCK-MDR1 P^eapp(A-B)
Description: Permeability measurements were conducted according to the Cyprotex protocol using the MDCK-MDR1 cell line obtained from the NIH (Rockville, Md., USA). […] The cells in this assay form a cohesive sheet of a single cell layer filing the surface area of the culture dish, also known as a confluent monolayer, and on day four the test compound was added to the apical side of the membrane and the transport of the compound across the monolayer was monitored over a time period of 60 min.
Test compounds were dissolved in DMSO at a concentration of 10 mM. The dosing solutions were prepared by diluting test compound with assay buffer (Hanks Balanced Salt Solution), pH 7.4, at a final concentration of 5 μM. For assessment of apical to basolateral (“A-B”) permeability, buffer was removed from the apical compartment and replaced with test compound dosing solution with or without the permeability glycoprotein (“PgP”, “P-gP”, “Pgp” or “P-gp”) inhibitor elacridar (2 μM). For assessment of basolateral to apical (“B-A”) permeability, buffer was removed from the companion plate and replaced with test compound dosing solution. […] The permeability coefficient (Papp) for each compound was calculated from the following equation: Papp=(dQ/dt)/(C0×S), where dQ/dt is the rate of permeation of the drug across the cells, C0 is the donor compartment concentration at time zero, and S is the area of the cell monolayer. […]

[3] = In vivo intracolonic (i.c.) dosing, plasma and colon concentrations (Protocol 3); parameters: species or system C57BL/6 mice; key to Plasma Concentration After i.c. Dosing, Mean: ^: Mean was not calculated as the values for all three mice were below the lower limit of quantitation; settings: for Plasma Concentration After i.c. Dosing, Mean: 5 mg/kg intracolonic, female C57BL/6 mice; for systemic exposure after i.c. dosing: mice
Excerpt: Plasma and colon concentration results were obtained by following Protocol 1 using venipuncture of dorsal metatarsal vein bleed for Compounds (B), (C), and Examples 6 and 11. Plasma and colon concentration results were obtained by following Protocol 2 using retro-orbital bleed for Compounds (A), and Examples 1, and 3-5 and Protocol 2 using venipuncture of the dorsal metatarsal vein for Examples 2, 7-10, and 12. Plasma and colon concentration results were obtained by following Protocol 3 for Examples 1, 3 and 4. These protocols are described below under the heading In vivo Studies.
Intracolonic (IC) dose group: Following anesthesia with isoflurane by inhalation, three non-fasted female C57BL/6 mice were administered the compound intracolonically through a small incision in the abdominal wall using a syringe and needle at a dose of 5 mg/kg as a solution in 20% HPβCD at a dose volume of 1 mL/kg. Blood samples were collected at 0.5, 2, and 4 h post dose via retro-orbital bleed. Blood samples were collected into tubes containing anticoagulant (Heparin-Na) and placed on wet ice. The plasma fraction was separated by centrifugation and frozen at −20° C. for up to 4 h and −80° C. after 4 h unless analyzed shortly after sample collection. Colon samples were collected at 4 h post dose. From 2 cm below the cecum, a 4-cm sample of the colon was dissected, cut open on the longitudinal axis, and the solid contents removed by flushing with 2 mL of saline. The colon was further washed by putting it in 5 mL of saline and shaken for 5 seconds. The colon sample was then patted dry, weighed, and homogenized as 1 part tissue (g) to 4 parts HPLC grade water (mL). Concentrations of the compound in plasma and colon homogenate were determined using a qualified liquid chromatography-triple quadrupole mass spectrometry (LC-MS/MS) method. This protocol was used to evaluate IC dosing of the following test compounds: Examples 1, 3, and 4.

[4] = In vivo oral (p.o.) dosing, plasma and colon concentrations (Protocols 1 and 2); settings: 25 mg/kg p.o., female C57BL/6 mice
Description: These protocols are described below under the heading In vivo Studies.
Three non-fasted female C57BL/6 mice were orally administered test compound at a dose of 25 mg/kg p.o. as a solution in 20% hydroxypropyl-beta-cyclodextrin (HPβCD) at a dose volume of 5 mL/kg. Blood samples were collected at 0.5, 2, and 4 h post dose via retro-orbital bleed or venipuncture of the dorsal metatarsal vein. Blood samples were collected into tubes containing anticoagulant (Heparin-Na) and placed on wet ice. The plasma fraction was separated by centrifugation and frozen at −20° C. for up to 4 h and −80° C. after 4 h unless analyzed shortly after sample collection. Colon samples were collected at 4 h post dose. […] Concentrations of the compound in plasma and colon homogenate were determined using a qualified liquid chromatography-triple quadrupole mass spectrometry (LC-MS/MS) method.
Three non-fasted female C57BL/6 mice were orally administered test compound at a dose of 25 mg/kg p.o. as a solution in 20% HPβCD at a dose volume of 5 mL/kg. […] The plasma fraction was separated by centrifugation and frozen at −20° C. for up to 4 h and −80° C. after 4 h unless analyzed shortly after sample collection. […] Concentrations of the compound in plasma and colon homogenate were determined using a qualified liquid chromatography-triple quadrupole mass spectrometry (LC-MS/MS) method.

CC(C)(O)CNC(=O)Cc1nc2cnc3[nH]ccc3c2n1[C@H]1CC[C@H](CC#N)CC1 [embodiment 10]
physical stability under ambient conditions [1]: physically not stable

C[C@@H](O)c1nc2cnc3[nH]ccc3c2n1[C@H]1CC[C@H](CC#N)CC1 [C]
Papp A→B [2]: 2.5 ×10⁻⁶ cm/s

CC(C)(O)CNC(=O)Cc1nc2cnc3[nH]ccc3c2n1[C@H]1CC[C@H](CC#N)CC1 [Embodiment 5]
physical stability after exposure to AAC [1]: physically unstable

N#CCCNC(=O)Cc1nc2cnc3[nH]ccc3c2n1[C@H]1CC[C@H](CC#N)CC1 [Ex. 4, N-(2-Cyanoethyl)-2-(1-((1r,4r)-4-(cyanomethyl)cyclohexyl)-1,6-dihydroimidazo[4,5-d]pyrrolo[2,3-b]pyridin-2-yl)acetamide]
Plasma Concentration After i.c. Dosing, Mean ([3]; Time = 4 h): ^
systemic exposure after i.c. dosing [3]: low systemic exposures

CC(C)(O)CNC(=O)Cc1nc2cnc3[nH]ccc3c2n1[C@H]1CC[C@H](CC#N)CC1 [embodiment 2]
physical stability after exposure to AAC [1]: converted to embodiment 3e

CC(C)(O)CNC(=O)Cc1nc2cnc3[nH]ccc3c2n1[C@H]1CC[C@H](CC#N)CC1 [Embodiment 7]
physical stability after exposure to AAC [1]: physically stable

N#CC[C@H]1CC[C@H](n2c(CC(=O)NCC3CC3)nc3cnc4[nH]ccc4c32)CC1 [Ex. 3, 2-(1-((1r,4r)-4-(Cyanomethyl)cyclohexyl)-1,6-dihydroimidazo[4,5-d]pyrrolo[2,3-b]pyridin-2-yl)-N-(cyclopropylmethyl)acetamide]
Plasma Concentration After i.c. Dosing, Mean ([3]; Time = 2 h): ^
Plasma Concentration After i.c. Dosing, Mean ([3]; Time = 4 h): ^
systemic exposure after i.c. dosing [3]: low systemic exposures

CC(C)(O)CNC(=O)Cc1nc2cnc3[nH]ccc3c2n1[C@H]1CC[C@H](CC#N)CC1 [Ex. 1, 2-(1-((1r,4r)-4-(Cyanomethyl)cyclohexyl)-1,6-dihydroimidazo[4,5-d]pyrrolo[2,3-b]pyridin-2-yl)-N-(2-hydroxy-2-methylpropyl)acetamide]
Plasma Concentration After i.c. Dosing, Mean ([3]; Time = 2 h): ^
Plasma Concentration After i.c. Dosing, Mean ([3]; Time = 4 h): ^
systemic exposure after i.c. dosing [3]: low systemic exposures

CC(C)(O)CNC(=O)Cc1nc2cnc3[nH]ccc3c2n1[C@H]1CC[C@H](CC#N)CC1 [Embodiment 6]
physical stability after exposure to AAC [1]: stable solid form

N#CC[C@H]1CC[C@H](n2c(CC(=O)Nc3cc[nH]n3)nc3cnc4[nH]ccc4c32)CC1 [Ex. 11, 2-(1-((1r,4r)-4-(Cyanomethyl)cyclohexyl)-1,6-dihydroimidazo[4,5-d]pyrrolo[2,3-b]pyridin-2-yl)-N-(1H-pyrazol-3-yl)acetamide]
Plasma Concentration After p.o. Dosing, Mean ([4]; Time = 2 h): ^
Plasma Concentration After p.o. Dosing, Mean ([4]; Time = 4 h): ^

CC(C)(O)CNC(=O)Cc1nc2cnc3[nH]ccc3c2n1[C@H]1CC[C@H](CC#N)CC1 [Embodiment 4]
physical stability under ambient conditions [1]: did not appear to be physically stable

CC(C)(O)CNC(=O)Cc1nc2cnc3[nH]ccc3c2n1[C@H]1CC[C@H](CC#N)CC1 [embodiment 1s]
physical stability in climate chamber ([1]; 25° C. and 100% relative humidity): conversion of embodiment 1s into embodiment 10
physical stability in climate chamber ([1]; 40° C. and 70% relative humidity): initial embodiment 1s had been recovered
